{"source": "patent US20200299251A1", "about": "“FURAN SKELETON-CONTAINING IMINOGUANIDINE DERIVATIVE AS WELL AS PREPARATION AND APPLICATION THEREOF” (SUN YAT-SEN UNIVERSITY, priority 2017, published 2020)", "key": {"[1]": {"assay": "Equilibrium constants and enthalpy changes of the process of absorbing and releasing carbon dioxide", "assay_type": "physicochemical"}, "[2]": {"assay": "Determination of pKa by pH titration with NaOH", "assay_type": "physicochemical", "protocol": "0.077 g of FUBIG hydrochloride and 0.585 g of NaCl were weighed, the volume was metered to 50 mL with ultrapure water, and 26 μL of HCl (36%) was dropwise added. The mixed solution was stirred at 25° C. until the temperature was stabilized. The pH meter was calibrated respectively using potassium hydrogen phthalate (pH 4.00) buffer, mixed phosphate buffer (pH 6.86), sodium tetraborate buffer (pH 9.18), and then titration was conducted with 0.1M NaOH solution. After each titration, the system was stabilized after waiting for 7min, and then the next titration was conducted. The volume and pH value of each titration were recorded.\nPlot was made according to the ph-V (mL). […] The same method was used to obtain: 15° C., pKa1=7.79, pKa2=8.90; at 20° C., pKa1=7.68, pKa2=8.82; at 30° C., pKa1=7.49, pKa2=8.66; at 35° C., pKa1=7.31, pKa2=8.59 (as shown in Table 3)."}, "[3]": {"assay": "Water solubility of FuBIG salts, UV absorbance of saturated aqueous solutions", "details": "saturated aqueous solution, UV absorbance at 368 nm", "quoted_text": "The absorbance of the above concentration gradients was determined under this wavelength, and standard curves were plotted to obtain a curve equation Y=14705×−0.0825 (as shown in FIG. 13B).\nIt was known that the pKa of HCO3^− was 10.32."}, "[4]": {"assay": "Differential scanning calorimetric experiment", "assay_type": "physicochemical", "details": "30-200° C., 10 K/min"}, "[5]": {"assay": "Release of H2O and CO2 by heating in watch glass under normal pressure (weight loss)", "assay_type": "physicochemical", "protocol": "The weight-lost solid was dissolved into water, carbon dioxide gas was introduced, and the above substances were stirred for lh to separate out a yellow solid.\nThe weight was 2.6 g, and weight loss was 29.7%. The weight-lost solid was dissolved into water, carbon dioxide gas was introduced, and the above substances were stirred for 1 h to separate out a yellow solid.\nThe weight was 2.46 g, and weight loss was 33.7%. The weight-lost solid was dissolved into water, carbon dioxide gas was introduced, and the above substances were stirred for lh to separate out a yellow solid.\nThe weight was 2.45 g, and weight loss was 33.7%. The weight-lost solid was dissolved into water, carbon dioxide gas was introduced, and the above substances were stirred for lh to separate out a yellow solid."}, "[6]": {"assay_type": "physicochemical"}, "[7]": {"assay": "Thermogravimetry infrared experiment", "assay_type": "physicochemical", "details": "10 K/min", "protocol": "The temperature range was 25-800° C., and the heating rate was 10 K/min. […] It can be seen from FIG. 9B that this molecule can release water molecules and carbon dioxide molecules under the heating condition, and water molecules and carbon dioxide molecules are nearly released at the same time."}}}
{"smiles": "N=C(N)N/N=C/c1ccc(/C=N/NC(=N)N)o1", "note": "[FuBIG]", "values": [{"measurement": "Enthalpy change ΔH", "setting": "[1]; FuBIG dissolution", "value": 11.76, "unit": "kcal/mol"}, {"measurement": "Equilibrium constant K", "setting": "[1]; FuBIG dissolution", "value": "4.03 × 10^−1"}, {"measurement": "Enthalpy change ΔH", "setting": "[1]; FuBIG protonation", "value": 11.01, "unit": "kcal/mol"}, {"measurement": "Equilibrium constant K", "setting": "[1]; FuBIG protonation", "value": "1.91 × 10^−12"}, {"measurement": "Enthalpy change ΔH", "setting": "[1]; Total CO2 absorbing process", "value": -27.75, "unit": "kcal/mol"}, {"measurement": "Equilibrium constant K", "setting": "[1]; Total CO2 absorbing process", "value": "5.97 × 10^4"}, {"measurement": "Enthalpy change ΔH", "setting": "[1]; Total CO2 releasing process", "value": 50.026, "unit": "kcal/mol"}, {"measurement": "pKa1", "setting": "[2]; 15° C.", "value": 7.79}, {"measurement": "pKa2", "setting": "[2]; 15° C.", "value": 8.90}, {"measurement": "pKa1", "setting": "[2]; 20° C.", "value": 7.68}, {"measurement": "pKa2", "setting": "[2]; 20° C.", "value": 8.82}, {"measurement": "pKa1", "setting": "[2]; 25° C.", "value": 7.57}, {"measurement": "pKa2", "setting": "[2]; 25° C.", "value": 8.71}, {"measurement": "pKa1", "setting": "[2]; 30° C.", "value": 7.49}, {"measurement": "pKa2", "setting": "[2]; 30° C.", "value": 8.66}, {"measurement": "pKa1", "setting": "[2]; 35° C.", "value": 7.31}, {"measurement": "pKa2", "setting": "[2]; 35° C.", "value": 8.59}, {"measurement": "melting point", "value": "244 to 246", "unit": "°C"}]}
{"smiles": "Cl.N=C(N)NN=Cc1ccc(C=NNC(=N)N)o1", "values": [{"measurement": "Solubility(FuBIG cation concentration, M)", "setting": "[3]", "value": "0.74 (6) M"}]}
{"smiles": "N=C(N)NN=Cc1ccc(C=NNC(=N)N)o1.O.O.O=[N+]([O-])O.O=[N+]([O-])O", "values": [{"measurement": "Solubility(FuBIG cation concentration, M)", "setting": "[3]", "value": "3.3 (2)×10^−2 M"}]}
{"smiles": "N=C(N)NN=Cc1ccc(C=NNC(=N)N)o1.O.O.O.O.O=C(O)O", "values": [{"measurement": "Enthalpy change ΔH", "setting": "[1]; FuBIGH2(CO3)(H2O)4 precipitate", "value": -24.276, "unit": "kcal/mol"}, {"measurement": "Equilibrium constant K", "setting": "[1]; FuBIGH2(CO3)(H2O)4 precipitate", "value": "1.63 × 10^7"}, {"measurement": "temperature range of release of carbon dioxide and water (DSC)", "setting": "[4]", "value": "97.89-109.13 °C"}, {"measurement": "weight loss", "setting": "[5]; heated for 5 h at 100° C.", "value": 33.6, "unit": "%"}, {"measurement": "weight loss", "setting": "[5]; heated for 12 h at 70° C.", "value": 29.7, "unit": "%"}, {"measurement": "weight loss", "setting": "[5]; heated for 12 h at 120° C.", "value": 33.7, "unit": "%"}, {"measurement": "weight loss", "setting": "[5]; heated for 12 h at 180° C.", "value": 33.7, "unit": "%"}, {"measurement": "pH of saturated aqueous solution", "setting": "[6]; pH meter", "value": 8.48}, {"measurement": "concentration of carbonate ion [CO3^2−] in the saturated solution", "setting": "[6]; saturated aqueous solution, pH 8.48", "value": "1.3(3)×10^−4 M"}, {"measurement": "Solubility(FuBIG cation concentration, M)", "setting": "[3]", "value": "9.3 (4)×10^−3 M"}, {"measurement": "temperature at which the weight loss rate is the maximum", "setting": "[7]; 25-800° C.", "value": 100, "unit": "°C"}, {"measurement": "temperature at which water and carbon dioxide molecules are completely lost", "setting": "[7]; 25-800° C.", "value": 165, "unit": "°C"}, {"measurement": "weight loss", "setting": "[7]; at 165° C.", "value": 36.31, "unit": "%"}]}
{"smiles": "N=C(N)NN=Cc1ccc(C=NNC(=N)N)o1.O=S(O)O", "values": [{"measurement": "Solubility(FuBIG cation concentration, M)", "setting": "[3]", "value": "1.4 (2)×10^−3 M"}]}
